Our source for the IC50 values is patent US20230192661A1, “1, 4, 5, 6-TETRAHYDROPYRIMIDINE-2-AMINE DERIVATIVE” (UBE Corporation, priority 2020, published 2023).

One assay addresses T1, αvβ6 (Homo sapiens, UniProt P06756+P18564).
T1 construct: endogenous in cells; host or cells: HT-29 cells
Nature of the assay: αvβ6 cell adhesion inhibition test (HT-29 cells on recombinant human LAP protein). In kind it is cell-based. Particulars: recombinant human LAP coating, 200 μM MnCl2, 1 hour, read-out: IC50 (rate of inhibition of cell adhesion, αvβ6). How it is done:
Test Example 2 was performed by partially modifying the method of Henderson et al. (Nat Med., 19 (12), 1617-24, 2013). In Test Example 2, the same reagents as in Test Example 1 were used unless otherwise specified.
Recombinant human LAP protein (manufactured by R&D Systems, Inc., 246-LP-025) was prepared at […] with PBS, dispensed at 100 μL/well to a 96-well plate, and left standing overnight. The plate was washed with HBSS, then subjected to blocking treatment with DMEM containing 1% BSA, and used as a coated plate in the adhesion test.
HT-29 cells cultured in McCoy's 5A medium (manufactured by Thermo Fisher Scientific, Inc., 16600) containing 10% FBS and 1% penicillin/streptomycin/amphotericin B were recovered and suspended in DMEM containing 0.1% BSA and 200 μM MnCl2 to prepare a cell suspension. A test compound was added thereto.
The cell suspension of 5×10^5 cells/mL containing the test compound was added at 100 μL/well to the coated plate and left standing for 1 hour in a 5% CO2 incubator (37° C.). One hour later, the supernatant was removed, and the plate was washed with HBSS containing 200 μM MnCl2. The cells that adhered to each well in the plate were stained with crystal violet, and the cells were lysed, followed by absorbance measurement. Inhibition without substrate coating was defined as 100% inhibition, and inhibition when DMSO was added instead of the test compound was defined as 0% inhibition. The rate of inhibition of cell adhesion by the test compound was calculated according to the following expression.
Rate of inhibition of cell adhesion (%)=[1−{(Absorbance in the case of adding the test compound)−(Absorbance without substrate coating)}/{(Absorbance in the case of adding DMS)−(Absorbance without substrate coating)}]×100
An IC50 value was calculated from the rate of inhibition of cell adhesion by the test compound. A: IC50<3 nM, B: 3 nM≤IC50<10 nM, C: 10 nM≤IC50<30 nM, D: 30 nM≤IC50<100 nM, or E: IC50≥100 nM.

Assay [1] deals with Human hepatic stellate cells. Nature of the assay: Active human hepatic stellate cell dedifferentiation test (decrease in ACTA2 mRNA expression). In kind it is cell-based. Particulars: 3 days differentiation then 2 days with compound, read-out: IC50 (rate of decrease in ACTA2 mRNA expression). The procedure:
Human hepatic stellate cells (manufactured by ScienCell Research Laboratories, Inc., 5300) were suspended in DMEM containing 10% FBS and […] penicillin/streptomycin/amphotericin B to prepare a cell suspension of 0.5×10^5 cells/mL, which was regarded as cells at the start of differentiation. The cells at the start of differentiation were dispensed at 1 mL/well to a 12-well plate and cultured, for differentiation, for 3 days in a 5% CO2 incubator (37° C.).
The culture solution in each well was removed, and DMEM containing 10% FBS and 1% penicillin/streptomycin/amphotericin B supplemented with a test compound dissolved in DMSO (final DMSO concentration: 0.1%) was added at 1 mL/well. The resultant was further cultured for 2 days in a 5% CO2 incubator (37° C.). In Test Example 4, the same reagents as in Test Example 1 were used unless otherwise specified.
RNA in the cultured cells was extracted using NucleoSpin® RNA (manufactured by Takara Bio Inc., U0955C), and cDNA was further synthesized from the extracted RNA using Prime Script™ RT reagent Kit with gDNA Eraser (manufactured by Takara Bio Inc., RR047A). Real time PCR was performed using the synthesized cDNA, various primers and TB Green® Premix Ex Taq™ II (manufactured by Takara Bio Inc., RR820A) and using PCR Thermal Cycler Dice Real Time (manufactured by Takara Bio Inc., System Code TP910, Model Code TP900). The primers used were actin alpha 2, smooth muscle (ACTA2) primer (manufactured by Takara Bio Inc., HA136273) and glyceraldehyde-3-phosphate dehydrogenase (GAPDH) primer (manufactured by Takara Bio Inc., HA067812).
The amplification curve of PCR was analyzed by the comparative Ct method. The expression level of ACTA2 mRNA was corrected with the expression level of GAPDH mRNA. An ACTA2 mRNA expression level when DMSO was added instead of the test compound was defined as 100%, and an ACTA2 mRNA expression level in the cells at the start of differentiation was defined as 0%. The rate of decrease in ACTA2 mRNA expression by the test compound was calculated according to the following expression.
Rate of decrease in ACTA2 mRNA expression (%)=[1−{(ACTA2 mRNA expression level in the case of adding the test compound)−(ACTA2 mRNA expression level in the cells at the start of differentiation)}/{(ACTA2 mRNA expression level in the case of adding DMSO)−(ACTA2 mRNA expression level in the cells at the start of differentiation)}]×100
An IC50 value was calculated from the rate of decrease in ACTA2 mRNA expression by the test compound. A: IC50<10 nM, B: 10 nM≤IC50<50 nM, C: 50 nM≤IC50<100 nM, or D: IC50≥100 nM.

T1 sequence (P06756 31-889 limits assumed): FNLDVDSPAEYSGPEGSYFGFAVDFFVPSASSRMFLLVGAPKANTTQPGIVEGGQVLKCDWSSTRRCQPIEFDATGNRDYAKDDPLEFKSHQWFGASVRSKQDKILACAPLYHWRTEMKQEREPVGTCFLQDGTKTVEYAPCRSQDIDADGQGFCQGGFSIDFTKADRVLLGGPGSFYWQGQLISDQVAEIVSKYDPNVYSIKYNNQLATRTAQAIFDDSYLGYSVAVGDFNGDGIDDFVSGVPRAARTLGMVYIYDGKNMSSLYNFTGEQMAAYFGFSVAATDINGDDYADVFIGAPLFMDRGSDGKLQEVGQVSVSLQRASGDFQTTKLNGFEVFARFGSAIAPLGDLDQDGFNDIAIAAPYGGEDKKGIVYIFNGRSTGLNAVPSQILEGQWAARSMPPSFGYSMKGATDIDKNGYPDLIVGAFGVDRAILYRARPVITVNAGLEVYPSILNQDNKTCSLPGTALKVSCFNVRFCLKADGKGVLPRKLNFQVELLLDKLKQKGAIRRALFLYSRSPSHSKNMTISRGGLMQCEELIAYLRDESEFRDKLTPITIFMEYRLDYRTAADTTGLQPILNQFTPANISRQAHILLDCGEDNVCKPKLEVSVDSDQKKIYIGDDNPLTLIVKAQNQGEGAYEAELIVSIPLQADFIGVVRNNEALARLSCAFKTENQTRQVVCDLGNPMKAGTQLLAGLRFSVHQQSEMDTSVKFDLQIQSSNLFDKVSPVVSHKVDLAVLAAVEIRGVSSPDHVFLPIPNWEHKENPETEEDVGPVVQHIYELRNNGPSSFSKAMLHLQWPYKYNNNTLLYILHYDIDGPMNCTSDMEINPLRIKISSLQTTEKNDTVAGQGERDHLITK
T1 sequence (P06756 891-1048 limits assumed): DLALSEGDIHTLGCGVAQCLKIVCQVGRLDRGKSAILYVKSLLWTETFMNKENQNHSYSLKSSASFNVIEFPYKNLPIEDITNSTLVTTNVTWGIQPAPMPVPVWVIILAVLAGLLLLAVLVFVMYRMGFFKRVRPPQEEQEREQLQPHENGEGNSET
T1 sequence (P18564 22-788): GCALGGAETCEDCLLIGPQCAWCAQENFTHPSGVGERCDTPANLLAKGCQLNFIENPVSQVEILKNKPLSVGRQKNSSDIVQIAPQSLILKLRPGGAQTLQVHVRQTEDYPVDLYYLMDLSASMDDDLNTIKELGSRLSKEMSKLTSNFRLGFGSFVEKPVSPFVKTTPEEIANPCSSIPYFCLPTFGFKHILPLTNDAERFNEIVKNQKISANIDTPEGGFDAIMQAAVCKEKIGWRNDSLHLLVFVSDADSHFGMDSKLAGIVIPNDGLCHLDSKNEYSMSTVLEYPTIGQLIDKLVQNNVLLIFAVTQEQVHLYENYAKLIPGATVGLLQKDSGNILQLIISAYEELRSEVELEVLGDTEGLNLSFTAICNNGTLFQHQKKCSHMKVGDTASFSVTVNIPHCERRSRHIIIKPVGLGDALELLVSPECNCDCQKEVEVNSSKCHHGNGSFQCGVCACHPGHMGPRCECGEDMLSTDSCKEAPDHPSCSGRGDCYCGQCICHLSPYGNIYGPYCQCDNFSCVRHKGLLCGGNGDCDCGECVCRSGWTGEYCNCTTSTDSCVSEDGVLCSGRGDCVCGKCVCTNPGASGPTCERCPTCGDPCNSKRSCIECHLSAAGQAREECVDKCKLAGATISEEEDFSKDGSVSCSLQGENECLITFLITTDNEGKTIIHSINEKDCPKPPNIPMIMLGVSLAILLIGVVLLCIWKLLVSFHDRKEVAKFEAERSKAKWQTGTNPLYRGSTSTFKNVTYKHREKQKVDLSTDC

With `O=C(O)C[C@H](NC(=O)CNC(=O)c1cc(NC2=NCC(F)CN2)c2cn[nH]c2c1)c1cc(Cl)c(F)c(C(F)(F)F)c1` (stereo partly drawn) [Example 15-(b), (3S)-3-(3-chloro-4-fluoro-5-(trifluoromethyl)phenyl)-3-(2-(4-((5-fluoro-1,4,5,6-tetrahydropyrimidin-2-yl)amino)-1H-indazole-6-carboxamido)acetamido)propanoic acid], the half-inhibitory concentration (IC50) at αvβ6 was less than 3 nM; in assay [1], less than 10 nM.

For the compound `COc1ccc([C@H](CC(=O)O)NC(=O)CNC(=O)c2cc(NC3=NCC(F)CN3)c3cn[nH]c3c2)cc1Br` (stereo partly drawn) [Example 16-(b), (3S)-3-(3-bromo-4-methoxyphenyl)-3-(2-(4-((5-fluoro-1,4,5,6-tetrahydropyrimidin-2-yl)amino)-1H-indazole-6-carboxamido)acetamido)propanoic acid], the half-inhibitory concentration (IC50) at αvβ6 was less than 3 nM; in assay [1] it was less than 10 nM.

Consider `O=C(O)C[C@H](NC(=O)CNC(=O)c1cc(NC2=NCC(F)CN2)c2cn[nH]c2c1)c1cc(Cl)cc(Cl)c1` (stereo partly drawn) [Example 17-(b), (3S)-3-(3,5-dichlorophenyl)-3-(2-(4-((5-fluoro-1,4,5,6-tetrahydropyrimidin-2-yl)amino)-1H-indazole-6-carboxamido)acetamido)propanoic acid], for which the IC50 on αvβ6 was in the range of 3 to 10 nM; in assay [1], 10 to 50 nM.

As to `O=C(O)C[C@H](NC(=O)CNC(=O)c1cc(NC2=NCC(F)CN2)c2cn[nH]c2c1)c1cc(Cl)cc(Br)c1` (stereo partly drawn) [Example 18-(b), (3S)-3-(3-bromo-5-chlorophenyl)-3-(2-(4-((5-fluoro-1,4,5,6-tetrahydropyrimidin-2-yl)amino)-1H-indazole-6-carboxamido)acetamido)propanoic acid], the IC50 on αvβ6 was less than 3 nM; in assay [1], less than 10 nM.

For the compound `O=C(O)C[C@H](NC(=O)CNC(=O)c1cc(NC2=NCC(F)CN2)c2cn[nH]c2c1)c1cc(Br)cc(Br)c1` (stereo partly drawn) [Example 19-(b), (3S)-3-(3,5-dibromophenyl)-3-(2-(4-((5-fluoro-1,4,5,6-tetrahydropyrimidin-2-yl)amino)-1H-indazole-6-carboxamido)acetamido)propanoic acid], the values for the IC50 (at αvβ6; in assay [1]) were less than 3 nM and less than 10 nM, respectively.

On to `O=C(O)C[C@H](NC(=O)CNC(=O)c1cc(NC2=NCC(F)CN2)c2cn[nH]c2c1)c1cc(Br)cc(I)c1` (stereo partly drawn) [Example 20-(b), (3S)-3-(3-bromo-5-iodophenyl)-3-(2-(4-((5-fluoro-1,4,5,6-tetrahydropyrimidin-2-yl)amino)-1H-indazole-6-carboxamido)acetamido)propanoic acid], for which the half-maximal inhibitory concentration (IC50) is less than 3 nM at αvβ6 and less than 10 nM in assay [1].

On to `O=C(O)C[C@H](NC(=O)CNC(=O)c1cc(NC2=NCC(F)CN2)c2cn[nH]c2c1)c1cc(Cl)cc(I)c1` (stereo partly drawn) [Example 21-(b), (3S)-3-(3-chloro-5-iodophenyl)-3-(2-(4-((5-fluoro-1,4,5,6-tetrahydropyrimidin-2-yl)amino)-1H-indazole-6-carboxamido)acetamido)propanoic acid], for which the IC50 at αvβ6 was less than 3 nM; in assay [1] it was 10 to 50 nM.

For `O=C(O)C[C@H](NC(=O)CNC(=O)c1cc(NC2=NCC(F)CN2)c2cn[nH]c2c1)c1cc(OC(F)F)cc(C(F)(F)F)c1` (stereo partly drawn) [Example 24-(b), (3S)-3-(3-(difluoromethoxy)-5-(trifluoromethyl)phenyl)-3-(2-(4-((5-fluoro-1,4,5,6-tetrahydropyrimidin-2-yl)amino)-1H-indazole-6-carboxamido)acetamido)propanoic acid], the 50% inhibitory concentration (IC50) on αvβ6 is less than 3 nM; in assay [1], less than 10 nM.

As to `O=C(O)C[C@H](NC(=O)CNC(=O)c1cc(NC2=NCC(F)CN2)c2cn[nH]c2c1)c1cc(Cl)cc(OC(F)F)c1` (stereo partly drawn) [Example 25-(b), (3S)-3-(3-chloro-5-(difluoromethoxy)phenyl)-3-(2-(4-((5-fluoro-1,4,5,6-tetrahydropyrimidin-2-yl)amino)-1H-indazole-6-carboxamido)acetamido)propanoic acid], the IC50 on αvβ6 is less than 3 nM; in assay [1], less than 10 nM.

With `O=C(O)C[C@H](NC(=O)CNC(=O)c1cc(NC2=NCC(F)CN2)c2cn[nH]c2c1)c1cc(Br)cc(OC(F)F)c1` (stereo partly drawn) [Example 26-(b), (3S)-3-(3-bromo-5-(difluoromethoxy)phenyl)-3-(2-(4-((5-fluoro-1,4,5,6-tetrahydropyrimidin-2-yl)amino)-1H-indazole-6-carboxamido)acetamido)propanoic acid], the IC50 is less than 3 nM at αvβ6 and less than 10 nM in assay [1].

Consider `O=C(O)C[C@H](NC(=O)CNC(=O)c1cc(NC2=NCC(F)CN2)c2cn[nH]c2c1)c1cc(OC(F)F)ccc1F` (stereo partly drawn) [Example 28-(b), (3S)-3-(5-(difluoromethoxy)-2-fluorophenyl)-3-(2-(4-((5-fluoro-1,4,5,6-tetrahydropyrimidin-2-yl)amino)-1H-indazole-6-carboxamido)acetamido)propanoic acid], for which the 50% inhibitory concentration (IC50) at αvβ6 was less than 3 nM; in assay [1] it was 10 to 50 nM.

On to `O=C(O)C[C@H](NC(=O)CNC(=O)c1cc(NC2=NCC(F)CN2)c2cn[nH]c2c1)c1cc(OC(F)F)cc(OC(F)F)c1` (stereo partly drawn) [Example 30-(b), (3S)-3-(3,5-bis(difluoromethoxy)phenyl)-3-(2-(4-((5-fluoro-1,4,5,6-tetrahydropyrimidin-2-yl)amino)-1H-indazole-6-carboxamido)acetamido)propanoic acid], for which the 50% inhibitory concentration (IC50) at αvβ6 is less than 3 nM; in assay [1] it was less than 10 nM.

With `O=C(O)C[C@H](NC(=O)CNC(=O)c1cc(NC2=NCC(F)CN2)c2cn[nH]c2c1)c1cc(Cl)cc(OC(F)(F)F)c1` (stereo partly drawn) [Example 31-(b), (3S)-3-(3-chloro-5-(trifluoromethoxy)phenyl)-3-(2-(4-((5-fluoro-1,4,5,6-tetrahydropyrimidin-2-yl)amino)-1H-indazole-6-carboxamido)acetamido)propanoic acid], the IC50 at αvβ6 is less than 3 nM; in assay [1], less than 10 nM.

Turning to `O=C(O)C[C@H](NC(=O)CNC(=O)c1cc(NC2=NCC(F)CN2)c2cn[nH]c2c1)c1cc(Br)cc(OC(F)(F)F)c1` (stereo partly drawn) [Example 32-(b), (3S)-3-(3-bromo-5-(trifluoromethoxy)phenyl)-3-(2-(4-((5-fluoro-1,4,5,6-tetrahydropyrimidin-2-yl)amino)-1H-indazole-6-carboxamido)acetamido)propanoic acid], the half-maximal inhibitory concentration (IC50) on αvβ6 is less than 3 nM; in assay [1], 10 to 50 nM.

On to `O=C(O)C[C@H](NC(=O)CNC(=O)c1cc(NC2=NCC(F)CN2)c2cn[nH]c2c1)c1cc(OC(F)(F)F)ccc1F` (stereo partly drawn) [Example 33-(b), (3S)-3-(2-(4-((5-fluoro-1,4,5,6-tetrahydropyrimidin-2-yl)amino)-1H-indazole-6-carboxamido)acetamido)-3-(2-fluoro-5-(trifluoromethoxy)phenyl)propanoic acid], for which the half-maximal inhibitory concentration (IC50) was less than 3 nM on αvβ6 and 10 to 50 nM in assay [1].

The term IC50 denotes the concentration that gives 50% inhibition.
